Where “and” joins values, the source holds several entries; their conditions need not be identical. Equal values may be shown once.

By IC50 is commonly meant the concentration that gives 50% inhibition. In general, viability, T/C refers to the result in the treated group divided by that in the control group, in per cent.

In this test the test system is 186277-243-T-J2-PDC multi-cell spheroid viability. Briefly: Anticancer human tumor 186277-243-T-J2-PDC patient-derived colon adenocarcinoma cell line growth inhibition [PI3K]. Particulars: for viability, T/C: stronger effect = lower value. Summed up: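 Three cell types, namely tumor cells, endothelial cells and mesenchymal stem cells, formed each spheroid. Combinations with four PI3K inhibitors were screened at clinically achievable concentrations decreasing by half-log, and spheroid viability was recorded.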
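Note: spheroids exposed to compounds for seven days before viability reading.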
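Throughout, for viability, T/C: 100% = DMSO vehicle control viability.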

On to `Cn1ncnc1[C@H]1c2n[nH]c(=O)c3cc(F)cc(c23)N[C@@H]1c1ccc(F)cc1` + COc1c(OCCCN2CCOCC2)ccc2c3n(c(=NC(=O)c4cnc(N)nc4)nc12)CCN3, for which the IC50 reads like this: (curve of first compound, second compound 0.00316 µM) above 100 nM; (curve of first compound, second compound 0.01 µM) above 100 nM; (curve of first compound, second compound 0.0316 µM) 21.4 nM; (curve of first compound, second compound 0.1 µM) below 0.316 nM; (curve of first compound, second compound 0.316 µM) below 0.316 nM; (curve of first compound, second compound 1 µM) below 0.316 nM. In addition, the viability, T/C was 102% (second compound 0.00316 µM, first compound 0.000316 µM); 100% (second compound 0.00316 µM, first compound 0.001 µM); 105% (second compound 0.00316 µM, first compound 0.00316 µM); 80.9% (second compound 0.00316 µM, first compound 0.01 µM); 88% (second compound 0.00316 µM, first compound 0.0316 µM); 79.5% (second compound 0.00316 µM, first compound 0.1 µM). Moreover, the viability, T/C was 93.8% (second compound 0.01 µM, first compound 0.000316 µM); 96% (second compound 0.01 µM, first compound 0.001 µM); 83.6% (second compound 0.01 µM, first compound 0.00316 µM); 98.3% (second compound 0.01 µM, first compound 0.01 µM); 85.5% (second compound 0.01 µM, first compound 0.0316 µM); 68.7% (second compound 0.01 µM, first compound 0.1 µM). In addition, the viability, T/C (second compound 0.0316 µM, first compound 0.000316 µM) was 66%; the viability, T/C (second compound 0.0316 µM, first compound 0.001 µM) is 63.8%; the viability, T/C (second compound 0.0316 µM, first compound 0.00316 µM) is 58.9%; the viability, T/C (second compound 0.0316 µM, first compound 0.01 µM) was 54.6%; the viability, T/C (second compound 0.0316 µM, first compound 0.0316 µM) is 47.2%; the viability, T/C (second compound 0.0316 µM, first compound 0.1 µM) is 40.8%. Besides, the viability, T/C runs as follows: (second compound 0.1 µM, first compound 0.000316 µM) 22.2%; (second compound 0.1 µM, first compound 0.001 µM) 15.9%; (second compound 0.1 µM, first compound 0.00316 µM) 16.7%; (second compound 0.1 µM, first compound 0.01 µM) 13%; (second compound 0.1 µM, first compound 0.0316 µM) 14.1%; (second compound 0.1 µM, first compound 0.1 µM) 9.78%. Besides, the viability, T/C is 4.1% (second compound 0.316 µM, first compound 0.000316 µM); 7.07% (second compound 0.316 µM, first compound 0.001 µM); 5.01% (second compound 0.316 µM, first compound 0.00316 µM); 6.2% (second compound 0.316 µM, first compound 0.01 µM); 4.54% (second compound 0.316 µM, first compound 0.0316 µM); 4.17% (second compound 0.316 µM, first compound 0.1 µM). The viability, T/C (second compound 1 µM, first compound 0.000316 µM) is 3.72%; the viability, T/C (second compound 1 µM, first compound 0.001 µM) is 4.99%; the viability, T/C (second compound 1 µM, first compound 0.00316 µM) was 1.76%; the viability, T/C (second compound 1 µM, first compound 0.01 µM) was 1.73%; the viability, T/C (second compound 1 µM, first compound 0.0316 µM) was 3.49%; the viability, T/C (second compound 1 µM, first compound 0.1 µM) was 2.04%.
For `CC(C)n1nc(-c2ccc3oc(N)nc3c2)c2c(N)ncnc21`, the viability, T/C was 98% [middle of 4 runs] (compound 0.000316 µM); 96.1% [middle of 4 runs] (compound 0.001 µM); 99.7% [middle of 4 runs] (compound 0.00316 µM); 78.8% [middle of 4 runs] (compound 0.0316 µM); 29.6% and 31.3% (2×) and 27.9% (compound 0.1 µM). For the same compound, where the note is “curve of compound”, the IC50 is 63.7 nM [middle of 4 runs].

Source of the values: PubChem BioAssay AID1963983 (Molecular Pharmacology Branch, DTP, NCI, 2024).
